According to US20170306047A1, “PHARMACEUTICAL COMPOSITION FOR CANCER PREVENTION AND TREATMENT, CONTAINING NDRG3 EXPRESSION OR ACTIVITY INHIBITOR AS ACTIVE INGREDIENT, OR NDRG3 PROTEIN-SPECIFIC ANTIBODY AND USE THEREOF” (KOREA RESEARCH INSTITUTE OF BIOSCIENCE AND BIOTECHNOLOGY, priority 2014, published 2017):
Values belong to the compound of their own block, whether it stands above or below them. Where a SMILES comes first, the peptide text is derived from it. The star is where a group is joined. Cbz = O=C(OCc1ccccc1)*

Legend:
[1] = molecular target: T1, recombinant human NDRG3-GST (Homo sapiens, UniProt Q9UGV2); assay: In vitro ubiquitination assay of recombinant NDRG3 by PHD2/VHL complex; assay type: biochemical; conditions: L-lactate pH 7.0, 20 mM
T1 construct: made in house; host or cells: E. coli BL21 (NDRG3-GST); HEK293T immunoprecipitates (PHD2, VHL)
Experimental: Further, to check an effect of lactate generation on ubiquitination of the NDRG3, an in vitro ubiquitination assay was performed. First, HEK293T cells were transfected with the Flag-tagged PHD2 and HA-tagged VHL variants, as described in Example 3, collected, and then lysed. Thereafter, the protein lysate (500 μg) was reacted with an anti-HA affinity gel (Sigma) or an anti-Flag affinity gel (Sigma) at 4° C. for a day, and centrifuged to obtain recombinant PHD2 proteins or VHL proteins. Then, the recombinant PHD2-/VHL-binding proteins were untreated or treated with L-lactate (pH 7.0, 20 mM), and then reacted at 37° C. for an hour in 50 μl of a solution including recombinant human NDRG3-GST (4 μg) prepared by the method described in Example 4-1, 500 ng of a ubiquitin-activating enzyme (E1, Upstate), 1 μg of a ubiquitin-conjugating enzyme (E2 (UbcH5a), Upstate), 2.5 μg of ubiquitin-Flag (Sigma), 20 mM HEPES (pH 7.3), 5 mM MgCl2, 1 mM DTT, and 2 mM ATP. Subsequently, the mixture was incubated with a GST-conjugated agarose resin at 4° C. for 4 hours, and the precipitate was washed, and subjected to Western blotting using an anti-Flag antibody, as described in Example 3 (FIG. 15F).

[2] = molecular target: T2, recombinant GST-NDRG3 protein (Homo sapiens, UniProt Q9UGV2); assay: In vitro binding assay with L-[14C]-lactate, wild-type NDRG3; conditions: 50 μg GST-NDRG3 versus GST, 30° C., one hour
T2 construct: made in house; host or cells: E. coli BL21
Experimental: Also, to confirm interaction between L-lactate and the NDRG3 protein, an in vitro binding assay was performed. GST or the recombinant GST-NDRG3 protein (50 μg) was reacted with 0.5 μCi of unlabeled L-lactate (pH 7.0, Sigma) and L-[^14C]-lactate (PerkinElmer) at 30° C. for an hour. Thereafter, a GST-conjugated agarose resin was added thereto, and the resulting mixture was reacted for 4 hours. Then, a resin to which the NDRG3-GST protein was bound was separated from the reaction mixture, and impurities were removed using PBS. Subsequently, the NDRG3-bound agarose resin was transferred to a scintillation solution containing 2 ml of an LSC-cocktail (PerkinElmer), and ^14C values were measured, and plotted in a graph (Left panel of FIG. 16B). Also, GST, the recombinant GST-NDRG3 protein (50 μg) or the recombinant GST-NDRG3 (G138W) variant protein (50 μg) was reacted with 0.5 μCi of L-[^14C]-lactate (PerkinElmer) at 30° C. for an hour, and ^14C values were then measured in the same manner as described above, and plotted in a graph (Right panel of FIG. 16B).

[3] = molecular target: T3, recombinant GST-NDRG3 (G138W) variant protein (Homo sapiens, UniProt Q9UGV2, G138W); assay: In vitro binding assay with L-[14C]-lactate, NDRG3 (G138W) variant; conditions: 50 μg GST-NDRG3 (G138W) versus GST-NDRG3
T3 construct: made in house; host or cells: E. coli BL21
Experimental: Specifically, to confirm interaction between L-lactate and the NDRG3 protein, a site-directed mutation was performed, as described in Example 4-3, using the pGEX-4T-2-NDRG3, which was cloned by the method disclosed in Example 4-1, as a template, and primers listed in the following Table 4, thereby obtaining a pGEX-4T-2-NDRG3 (G138W) variant construct in which glycine (G) that was an amino acid at position 138 among the L-lactate binding sites of the NDRG3 was substituted with […]. […]
Also, to confirm interaction between L-lactate and the NDRG3 protein, an in vitro binding assay was performed. […] Subsequently, the NDRG3-bound agarose resin was transferred to a scintillation solution containing 2 ml of an LSC-cocktail (PerkinElmer), and ^14C values were measured, and plotted in a graph (Left panel of FIG. 16B). Also, GST, the recombinant GST-NDRG3 protein (50 μg) or the recombinant GST-NDRG3 (G138W) variant protein (50 μg) was reacted with 0.5 μCi of L-[^14C]-lactate (PerkinElmer) at 30° C. for an hour, and ^14C values were then measured in the same manner as described above, and plotted in a graph (Right panel of FIG. 16B).

[4] = test system: NDRG3 protein in HeLa cells; assay: NDRG3 protein expression after PHD2 inhibition, Western blotting, HeLa cells; assay type: cell-based; conditions: varying concentration, 24 hours, normoxic condition (21% O2)
Experimental: (§1) Also, to determine the functional relationship between PHD2 and NDRG3, MCF-7 cells (FIG. 4B) or HeLa cells (FIG. 4C) were treated with a varying concentration of desferrioxamine (DFX), which was a PHD2 inhibitor, for 24 hours under a normoxic condition (21% O2), and then lysed, as described in Example 3. The cell lysate was subjected to Western blotting using anti-NDRG3, anti-HIF-1α, and anti-β-actin (FIGS. 4B and 4C).

[5] = test system: NDRG3 protein in MCF-7 cells; assay: NDRG3 protein expression after PHD2 inhibition, Western blotting, MCF-7 cells; assay type: cell-based; conditions: varying concentration, 24 hours, normoxic condition (21% O2)
Experimental: as §1

[6] = test system: NDRG3 protein in NDRG3-overexpressing HeLa cells; assay: In vivo ubiquitination assay of NDRG3 under proteasome inhibition; assay type: cell-based; conditions: 20 μM for 8 hours, normoxic condition
Experimental: Specifically, a vector for transfection (an MSCV retroviral system) was constructed using a full-length NDRG3 cDNA (SEQ ID NO: 1) and a pMSCVneo retroviral vector (Clontech). To construct the viral vector, a GP293 cell line was transfected using lipofectamine (Invitrogen). After 48 hours, HeLa cells were treated with a cell supernatant containing NDRG3-retroviruses or control-retroviruses together with 6 μg/ml of polybrene for 24 hours. Then, the cells in which the NDRG3 was overexpressed were untreated or treated with 20 μM MG132 for 8 hours, and then collected. The collected cells were subjected to Western blotting using an anti-NDRG3 antibody and an anti-β-actin antibody (FIG. 7A).
Also, to determine ubiquitination of NDRG3 under a normoxic condition, an in vivo ubiquitination assay was performed. First, a vector for transfection was constructed using shNDRG3 (Sigma-Aldrich, SEQ ID NO: 4) and a lentiviral vector to inhibit expression of the NDRG3. To construct the viral vector, a packing cell line was transfected as described above. Thereafter, HeLa cells were treated with a cell supernatant containing the NDRG3 shRNA-expressing lentiviruses together with 6 μg/ml of polybrene, and kept in a DMEM medium supplemented with 10% FBS. […]

[7] = test system: NDRG3 protein in Huh-1 cells; assay: NDRG3 accumulation after inhibition of lactate generation, Western blotting, Huh-1 cells; assay type: cell-based; conditions: 40 mM, light hypoxic condition
Experimental: (§2) Also, to check an effect of the inhibition of the lactate generation on expression of the ectopic variant NDRG3 (N66D) protein under a sustained hypoxic condition, Huh-1 cells and the NDRG3 (N66D) variant-overexpressing Huh-1 cells were untreated or treated with 40 mM sodium oxamate, statically cultured by time under a light hypoxic condition, and then collected and lysed, as described in Example 3. Thereafter, the cell lysate was subjected to Western blotting using anti-NDRG3 and anti-β-actin antibodies (FIG. 17E).

[8] = test system: NDRG3 protein in MCF-7 cells; assay: NDRG3 protein accumulation after inhibition of L-lactate generation, MCF-7 cells; assay type: cell-based; conditions: varying concentration, 24 hours, hypoxic condition (1% O2)
Experimental: Also, to check an effect of inhibition of the L-lactate generation on expression of the NDRG3 protein, MCF-7 cells were treated with a varying concentration of sodium oxamate that was a lactate dehydrogenase A (LDHA) inhibitor, statically cultured for 24 hours under a hypoxic condition (1% O2), as described in Example 5-2, and then collected and lysed, as described in Example 3. Thereafter, the cell lysate was subjected to Western blotting using anti-NDRG3, anti-HIF-1α and anti-β-actin antibodies, as described above, and L-lactate generation was determined, and then plotted in a graph. The values were normalized to the L-lactate standard curve (FIG. 15B).

[9] = test system: NDRG3 (N66D) variant in Huh-1 cells; assay: NDRG3 variant accumulation after inhibition of lactate generation, NDRG3 (N66D)-overexpressing Huh-1 cells; assay type: cell-based; conditions: ectopic NDRG3 (N66D) variant overexpressed, 40 mM, light hypoxic condition
Experimental: as §2

[10] = test system: human umbilical vein endothelial cells (HUVEC); assay: Tube forming assay, culture broth of Huh-1 cells; assay type: cell-based; conditions: control Huh-1 cells, 24 hours, hypoxic condition (1% O2)
Experimental: (§3) Specifically, a tube forming assay was performed to check a change in angiogenesis activity by the NDRG3 deletion. First, the Huh-7 cells (2×10^5 cells/ml) in which the expression of the NDRG3 was inhibited using shNDRG3 according to the method described in Example 4-4, and the control Huh-7 cells were cultured for 24 hours under a hypoxic condition (1% O2), and a culture broth (1 ml) was recovered, and then cultured with human umbilical vein endothelial cells (HUVEC; 1×10^5 cells/ml) for 6 to 12 hours in a 6-well dish previously coated with Matrigel to observe formation of tubes (FIG. 13A).
(§4) Specifically, Huh-1 cells in which the NDRG3 (N66D) variant was overexpressed were prepared, and the control cells and the NDRG3 (N66D) variant-overexpressing Huh-1 cells were untreated or treated with sodium oxamate, statically cultured for 24 hours under a hypoxic condition (1% O2). Thereafter, the cells were collected, as described in Example 6-2, and then subjected to a tube forming assay (FIG. 18).

Huh-1 cells = assay: MTT assay of cell growth, Huh-1 cells; assay type: cell-based; conditions: varying concentration, light hypoxic condition (3% O2)
Experimental: (§5) Specifically, to check the cell growth in response to the NDRG3 deletion, an MTT assay was performed. First, the NDRG3-deleted Huh-1 cells prepared by the method disclosed in Example 6-1, and the control Huh-1 cells was seeded at a density of 2,000 cells/well in a 96-well plate, and then cultured at 37° C. in a 5% CO2 incubator under a hypoxic condition (3% O2) over time. Thereafter, the cells were treated with a 1 mg/ml MTT solution diluted with PBS, and reacted for 2 hours. Then, a medium containing the MTT was removed, and the cells were treated with 100 μl of DMSO to dissolve MTT formazan crystals. Subsequently, an optical density of the cell suspension was measured at a wavelength of 570 nm using a spectrophotometer (FIG. 14A).
(§6) Specifically, to check an effect of the ectopic NDRG3 (N66D) variant on the cell growth after inhibition of the lactate generation, Huh-1 cells were transfected with an ectopic variant NDRG3 (N66D) expression vector, as described in Example 4-3. Then, the Huh-1 cells and the NDRG3 (N66D) variant-overexpressing Huh-1 cells were seeded at a density of 1,000 cells/well in a 96-well plate, treated with a varying concentration of sodium oxamate, statically cultured by time under a light hypoxic condition (3% O2). Thereafter, to check the cell growth, an MTT assay was performed, as described in Example 6-3, and plotted in a graph (FIG. 17A).

[11] = test system: NDRG3 (N66D) variant-overexpressing Huh-1 cells; assay: MTT assay of cell growth, NDRG3 (N66D) variant-overexpressing Huh-1 cells; assay type: cell-based; conditions: ectopic NDRG3 (N66D) variant overexpressed, light hypoxic condition (3% O2)
Experimental: as §5, §6

[12] = test system: human umbilical vein endothelial cells (HUVEC); assay: Tube forming assay, culture broth of NDRG3 (N66D) variant-overexpressing Huh-1 cells; assay type: cell-based; conditions: ectopic NDRG3 (N66D) variant overexpressed, 24 hours, hypoxic condition (1% O2)
Experimental: as §3, §4

[13] = test system: NDRG3 protein in MCF-7 cells; assay: NDRG3 protein expression after inhibition of glycolysis, MCF-7 cells; assay type: cell-based; conditions: varying concentration, 24 hours, hypoxic condition (1% O2)
Experimental: Additionally, to check an effect of inhibition of glycolysis on expression of the NDRG3 protein, MCF-7 cells were treated with a varying concentration of 2-deoxyglucose (2-DG) inhibiting the glycolysis, statically cultured for 24 hours under a hypoxic condition (1% O2), as described in Example 5-2, and then collected and lysed, as described in Example 3. Thereafter, the MCF-7 cells were subjected to Western blotting using anti-NDRG3 and anti-β-actin antibodies (FIG. 15D).

T1 sequence (Q9UGV2 whole entry): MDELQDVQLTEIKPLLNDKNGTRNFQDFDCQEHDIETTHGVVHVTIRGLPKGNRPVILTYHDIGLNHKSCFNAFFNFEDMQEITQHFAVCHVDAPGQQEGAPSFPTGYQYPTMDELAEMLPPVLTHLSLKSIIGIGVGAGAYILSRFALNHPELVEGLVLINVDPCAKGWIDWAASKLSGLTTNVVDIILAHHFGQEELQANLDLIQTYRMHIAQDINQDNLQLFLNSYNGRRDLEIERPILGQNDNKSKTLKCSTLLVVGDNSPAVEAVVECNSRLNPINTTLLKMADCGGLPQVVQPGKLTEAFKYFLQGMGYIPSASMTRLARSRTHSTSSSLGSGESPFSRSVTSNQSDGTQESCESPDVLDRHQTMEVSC
T2 sequence (Q9UGV2 whole entry): as above
T3 sequence (Q9UGV2 whole entry G138W): as the sequence (Q9UGV2 whole entry) above, with G138W counted along it

ubiquitination of recombinant NDRG3 protein by PHD2/VHL complex [1]: reduced
in vitro binding of recombinant NDRG3 protein to lactate (14C values) [2]: increased
lactate-binding affinity of NDRG3 variant protein (14C values) [3]: reduced
SMILES: C[C@H](O)C(=O)O [lactate, L-lactate]

SMILES: CC(=O)N(O)CCCCCNC(=O)CCC(=O)N(O)CCCCCNC(=O)CCC(=O)N(O)CCCCCN [DFX, desferrioxamine]
expression of NDRG3 protein [4]: increasingly expressed
expression of NDRG3 protein [5]: increasingly expressed

SMILES: CC(C)C[C@@H](C=O)NC(=O)[C@H](CC(C)C)NC(=O)[C@H](CC(C)C)NC(=O)OCc1ccccc1 [MG132] (Cbz-Leu-Leu-Leu-aldehyde)
ubiquitination of NDRG3 protein [6]: actively ubiquitinated

SMILES: NC(=O)C(=O)[O-].[Na+] [sodium oxamate]
accumulation of NDRG3 [7]: inhibited
accumulation of NDRG3 protein [8]: inhibited in proportion to the lactate expression
accumulation of NDRG3 variant [9]: lasted
angiogenesis (tube formation) [10]: inhibited
cell growth (MTT) (Huh-1 cells): inhibited in a concentration-dependent manner
cell growth (MTT) [11]: increased
angiogenesis (tube formation) [12]: increased again

SMILES: O=CC[C@@H](O)[C@H](O)[C@H](O)CO [2-deoxyglucose]
expression of NDRG3 protein [13]: reduced
